Laboratory results from patent US7943551B2, “3-cyclopropyl-4-(3-thiobenzoyl) pyrazoles and their use as herbicides” (Bayer Cropscience AG, priority 2007, dated 2011).

Columns and labels:
Type in all cases: in vivo
[1] = test system: Triticum aestivum (wheat); experiment: Pre-emergence damage of crop plants; conditions: 320 g of a.i./ha, crop plant wheat
Text: (§1) Seeds or rhizome pieces of mono- and dicotyledonous harmful plants are placed in sandy loam in pots of a diameter of 9 to 13 cm and covered with soil. The herbicides, formulated as emulsifiable concentrates or dusts, are applied to the surface of the covering soil in the form of aqueous dispersions or suspensions or emulsions at an application rate of 300 to 800 l of water/ha (converted), at a dosage of 320 grams per hectare. For further cultivation of the plants, the pots are then kept in a greenhouse under optimum conditions. The visual scoring of the damage to the harmful plants is carried out 3-4 weeks after the treatment. Here, the compounds of Nos. 1-3, 1-15, 1-44 and 1-1407 show an activity of at least 90% against Echinochloa crus galli. The compounds of Nos. 1-15, 1-45, 1-1407 and 1-1419 show an activity of at least 90% against Abutilon theophrasti. The compounds of Nos. 1-3, 1-45, 1-1406 and 1-1418 show an activity of at least 90% against Amaranthus retroflexus. The compounds of Nos. 1-44, 1-1406, 1-1407 and 1-1419 show an activity of at least 90% against Stellaria media.
(§2) The comparative tests of Tables 1 to 24 below show the superiority of the compounds according to the invention over the compounds known from the prior art.
(§3) • ABUTH Abutilon theophrasti ALOMY Alopecurus myosuroides • AMARE Amaranthus retroflexus AVEFA Avena fatua • CHEAL Chenopodium album ECHCG Echinochloa crus galli • GALAP Galium aparine LOLMU Lolium multiflorum • MATIN Matricaria inodora PHBPU Pharbitis purpureum • POLCO Fallopia convolvulus STEME Stellaria media • VERPE Veronica persica VIOTR Viola tricolor • XANST Xanthium strumarium Crop Plants • GLXMA Glycine max (soybeans) TRZAS Triticum aestivum (wheat) • ZEAMX Zea mays (corn)

Glycine max (soybeans) = experiment: Pre-emergence damage of crop plants; conditions: 320 g of a.i./ha, crop plant soybeans
Text: as §1, §2, §3

Galium aparine = experiment: Pre-emergence herbicidal action; conditions: 320 g of a.i./ha
Text: as §1, §2, §3

Chenopodium album = experiment: Pre-emergence herbicidal action; conditions: 320 g of a.i./ha
Text: as §1, §2, §3

Lolium multiflorum = experiment: Post-emergence herbicidal action; conditions: 80 g of a.i./ha
Experimental: (§4) Seeds of mono- and dicotyledonous harmful plants are placed in sandy loam in cardboard pots, covered with soil and grown in the greenhouse under good growth conditions. Two to three weeks after sowing, the test plants are treated at the three-leaf stage. The compounds according to the invention, which are formulated as wettable powders or as emulsion concentrates, are sprayed at an application rate of 600 to 800 l of water/ha (converted) in a dosage of 80 grams per hectare onto the surface of the green plant parts. The visual scoring of the damage to the harmful plants is carried out 3-4 weeks after the treatment. Here, the compounds of Nos. 1-39, 1-40, 1-1382 and 1-2091 show an activity of at least 90% against Echinochloa crus galli. The compounds of Nos. 1-3, 1-44 and 1-2091 shown an activity of at least 90% against Abutilon theophrasti. The compounds of Nos. 1-39, 1-40 and 1-1382 show an activity of at least 90% against Veronica persica. The compounds of Nos. 1-3, 1-38, 1-39, 1-1406 and 1-1407 show an activity of at least 90% against Stellaria media.
as §2, §3

Alopecurus myosuroides = experiment: Post-emergence herbicidal action; conditions: 80 g of a.i./ha
Experimental: as §4, §2, §3

Echinochloa crus galli = experiment: Post-emergence herbicidal action; conditions: 80 g of a.i./ha, visual scoring 3-4 weeks after treatment, read-out: Herbicidal activity in % against ECHCG
Experimental: as §4, §2, §3

Avena fatua = experiment: Post-emergence herbicidal action; conditions: 80 g of a.i./ha
Experimental: as §4, §2, §3

Abutilon theophrasti = experiment: Post-emergence herbicidal action; conditions: Abutilon theophrasti, 80 g of a.i./ha, visual scoring 3-4 weeks after treatment, read-out: Herbicidal activity in % against ABUTH
Experimental: as §4, with “The compounds according to the invention, which are formulated as wettable powders or as emulsion concentrates, are sprayed at an application rate of 600 to 800 l of water/ha (converted) in a dosage of 80 grams per hectare onto the surface of the green plant parts.” left out
as §2, §3

Compound	Damage to TRZAS [1]	Damage to GLXMA (Glycine max (soybeans))	Herbicidal activity in % GALAP (Galium aparine) [%]	Herbicidal activity in % CHEAL (Chenopodium album) [%]	Herbicidal activity in % against LOLMU (Lolium multiflorum) [%]	Herbicidal activity in % against ALOMY (Alopecurus myosuroides) [%]	pest or weed control at 80 g/ha (Echinochloa crus galli) [%]	Herbicidal activity in % against AVEFA (Avena fatua) [%]	pest or weed control at 80 g/ha (Abutilon theophrasti) [%]
Cc1c(C(=O)c2c(C3CC3)nn(C)c2O)ccc(S(C)(=O)=O)c1S(=O)(=O)CC1CC1 [drawing 37]	0	0	100	100					
Cn1nc(C2CC2)c(C(=O)c2ccc(Cl)c(S(C)(=O)=O)c2Cl)c1O [drawing 56, reference compound]					20	20	30	20	60
Cn1nc(C2CC2)c(C(=O)c2ccc(Cl)c(S(=O)(=O)CC3CC3)c2Cl)c1O [drawing 55]					60	70	90	50	70
